Measured values from article PMC3928115, “Organophosphate-Induced Changes in the PKA Regulatory Function of Swiss Cheese/NTE Lead to Behavioral Deficits and Neurodegeneration” (PLoS ONE, 2014).

Molecular target: T1, Swiss Cheese (SWS) (Drosophila melanogaster, UniProt Q9U969)
T1 construct: native full-length SWS in fly head homogenate, not purified; sws1 null mutant used as control
Experiment: esterase activity in fly head homogenates
Type: biochemical
Conditions: untreated flies; activity very low in sws1 null, raised to about 160% with SWS overexpression

T1 sequence (Q9U969 whole entry): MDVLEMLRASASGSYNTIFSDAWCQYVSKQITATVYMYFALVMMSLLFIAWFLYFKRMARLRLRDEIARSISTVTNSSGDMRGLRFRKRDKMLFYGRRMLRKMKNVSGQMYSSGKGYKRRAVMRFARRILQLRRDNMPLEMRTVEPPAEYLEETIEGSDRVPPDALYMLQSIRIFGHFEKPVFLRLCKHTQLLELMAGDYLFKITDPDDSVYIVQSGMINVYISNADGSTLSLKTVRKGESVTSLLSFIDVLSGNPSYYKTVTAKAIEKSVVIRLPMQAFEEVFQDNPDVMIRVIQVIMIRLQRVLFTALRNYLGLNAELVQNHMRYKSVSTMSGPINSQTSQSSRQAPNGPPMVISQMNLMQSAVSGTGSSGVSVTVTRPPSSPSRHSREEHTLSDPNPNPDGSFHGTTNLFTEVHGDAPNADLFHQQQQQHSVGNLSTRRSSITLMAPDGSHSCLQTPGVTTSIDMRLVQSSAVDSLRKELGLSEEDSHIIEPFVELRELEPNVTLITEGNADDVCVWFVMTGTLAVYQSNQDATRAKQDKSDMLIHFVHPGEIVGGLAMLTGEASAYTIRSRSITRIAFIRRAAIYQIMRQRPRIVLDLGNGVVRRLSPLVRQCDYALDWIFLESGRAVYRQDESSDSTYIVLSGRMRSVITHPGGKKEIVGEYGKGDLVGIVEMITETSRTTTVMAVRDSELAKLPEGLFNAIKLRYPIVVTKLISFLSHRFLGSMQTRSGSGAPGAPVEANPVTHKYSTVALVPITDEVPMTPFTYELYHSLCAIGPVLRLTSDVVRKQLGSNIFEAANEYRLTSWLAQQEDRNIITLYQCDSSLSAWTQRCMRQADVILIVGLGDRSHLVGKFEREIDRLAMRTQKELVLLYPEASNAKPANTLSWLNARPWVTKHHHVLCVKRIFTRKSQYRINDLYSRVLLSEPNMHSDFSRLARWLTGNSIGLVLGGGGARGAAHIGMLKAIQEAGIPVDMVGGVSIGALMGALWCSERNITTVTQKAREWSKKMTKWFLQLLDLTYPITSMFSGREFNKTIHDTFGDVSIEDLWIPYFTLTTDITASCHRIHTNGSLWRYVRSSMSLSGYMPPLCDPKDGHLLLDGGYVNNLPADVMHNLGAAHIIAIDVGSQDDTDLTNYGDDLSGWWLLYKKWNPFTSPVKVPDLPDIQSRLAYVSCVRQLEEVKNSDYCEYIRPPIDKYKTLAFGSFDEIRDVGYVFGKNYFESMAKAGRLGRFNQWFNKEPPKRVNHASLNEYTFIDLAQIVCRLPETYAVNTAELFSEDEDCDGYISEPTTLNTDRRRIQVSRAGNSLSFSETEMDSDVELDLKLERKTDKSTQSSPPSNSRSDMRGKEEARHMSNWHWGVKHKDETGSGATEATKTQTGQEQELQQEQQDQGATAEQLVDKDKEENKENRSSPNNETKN

CCCCC(=O)Oc1ccccc1 [phenyl valerate]
esterase activity in fly head homogenates: hydrolyzing activity against phenyl valerate, a standard substrate to detect NTE activity
